Results reported in patent publication US7235583B1, “Fatty acid-anticancer conjugates and uses thereof” (Luitpold Pharmaceuticals, Inc.,, priority 1999, dated 2007).

Tests used:
Format in all cases: in vivo
[1] = test system: mouse lung tumor line M (Madison) 109; experiment: Taxoprexin and paclitaxel against M 109 lung carcinoma in mice, treatment from day 4 (tumor about 30 mg); conditions: days 4 through 8, tumor about 30 mg at start
Method: Syngeneic mice were injected with mouse lung tumor line M (Madison) 109 sub-cutaneously in the flank. […] Both drugs were dissolved in 10% cremophor EL/10% ethanol/80% saline. Tumor volume was estimated from tumor width and length. […] (FIG. 1)

human HCT colon tumor = experiment: Cure of human HCT colon tumor in mice; conditions: HCT is a paclitaxel resistant tumor
[2] = test system: human NCI-H522 lung tumor; experiment: Response of human NCI-H522 lung tumor in nude mice; conditions: day 15 to 19 after implantation
Method: The tumors were implanted sub-cutaneously. Tumor mass was determined by calculation from tumor length and width. The drugs were dissolved in 12.5% cremophor EL/12.5% ethanol/75% saline and delivered i.v. into the tail vein, once a day for 5 days, from day 15 to 19 after tumor implantation. […] (FIG. 3)

[3] = Plasma and tumor concentrations of paclitaxel in mice bearing M 109 or M 5076 tumors; conditions: for time for which levels of paclitaxel in tumors remain stable: tumors treated with the named drug
Method: The drug was dissolved in 10% cremophor EL/10% ethanol/80% saline. Mice were sacrificed and tumors immediately excised as a function of time after injecting the drug. Tumor tissue was homogenized and paclitaxel extracted. […] Blood was collected at the same time intervals and the amount of paclitaxel determined. […] Each data point is the mean of three measurements (n=3); the error bar is one standard deviation.

[4] = Dose comparisons (MTD) of taxoprexin and paclitaxel in various species; conditions: mice, rats and dogs
Excerpt: Calculation of MTD in animals may be based on a number of physiological parameters, such as death, particular toxicities, drug induced weight loss. Using death as an endpoint, the MTD may be the dose given test animals in which each member of the test group survived. Using toxicity as an endpoint, the MTD may be the dose at which moderate but not severe toxicity is observed. Using weight loss as an endpoint, the MTD may be the dose above which a certain percent change in body weight is induced.

[5] = test system: mouse lung tumor line M (Madison) 109; experiment: Taxoprexin and paclitaxel against M 109 lung carcinoma in mice, treatment from day 5 (tumors 300 mg); conditions: tumors 300 mg at start
Method: Syngeneic mice were injected with mouse lung tumor line M (Madison) 109 sub-cutaneously in the flank. […] Both drugs were dissolved in 10% cremophor EL/10% ethanol/80% saline. Tumor volume was estimated from tumor width and length. […] (FIG. 2)

[6] = paclitaxel 20 mg/kg/day x 5 days i.v. bolus from day 5

Structure (SMILES) | mice with all measurable tumors completely eliminated ([1]; taxoprexin 120 mg/kg/day x 5 days i.v. bolus) | mice cured of tumor (human HCT colon tumor) | mice with all measurable tumors eliminated ([2]; 50 mg/kg/day x 5 days i.v.) | plasma concentration of paclitaxel derived from taxoprexin ([3]; after 24 hours, i.v. bolus 50 mg/kg taxoprexin) | tumor concentration of paclitaxel derived from taxoprexin ([3]; after 24 hours, i.v. bolus 50 mg/kg taxoprexin, M109 or M5076 tumors) | time for which levels of paclitaxel in tumors remain stable [3] | toxicity compared with paclitaxel [4] | mice with all measurable tumors completely eliminated ([5]; taxoprexin 80 mg/kg/day x 5 days i.v. bolus from day 5) | mice with all measurable tumors completely eliminated (C/T) ([5]; taxoprexin 120 mg/kg/day x 5 days i.v. bolus from day 5) | retarded tumor growth (duration) ([1]; paclitaxel 20 mg/kg/day x 5 days i.v. bolus) | mice with all measurable tumors eliminated ([2]; 20 mg/kg/day x 5 days i.v.) | t½ in tumor ([3]; paclitaxel in the same tumor system) | LCK [5, 6] | retarded tumor growth (duration) [5, 6]
CC/C=C\C/C=C\C/C=C\C/C=C\C/C=C\C/C=C\CCC(=O)O[C@@H](C(=O)O[C@H]1C[C@@]2(O)[C@@H](OC(=O)c3ccccc3)[C@@H]3[C@]4(OC(C)=O)CO[C@@H]4C[C@H](O)[C@@]3(C)C(=O)[C@H](OC(C)=O)C(=C1C)C2(C)C)[C@@H](NC(=O)c1ccccc1)c1ccccc1 [taxoprexin] | eight out of eight | 3/8 | 10/10 | 70 nM | about 3 μM | 24 h | less toxic | four out of seven | 7/8 |  |  |  |  | 
CC(=O)O[C@H]1C(=O)[C@@]2(C)[C@H]([C@H](OC(=O)c3ccccc3)[C@]3(O)C[C@H](OC(=O)[C@H](O)[C@@H](NC(=O)c4ccccc4)c4ccccc4)C(C)=C1C3(C)C)[C@]1(OC(C)=O)CO[C@@H]1C[C@@H]2O [paclitaxel, reference compound] |  | 0/8 |  |  |  | less than 8 hours |  |  |  | about four days | 10/10 | < 8 h | 1.0 | about four days
